The target of series [1] is T1, HDAC1 (Homo sapiens, UniProt Q13547).
T1 construct: purchased BPS Bioscience #50061
Kind of series: Enzymatic HDAC fluorogenic assay (BPS Bioscience), HDAC1. The format is biochemical. Particulars: 37 °C, 30 min incubation.
Procedure: (§4) Tubastain A (Portland, OR, USA) was purchased from TCI chemicals.
(§5) Enzymatic HDAC assay was performed following manufacturer’s protocol (BPS Bioscience). Briefly, HDAC assay buffer (35 µL) was mixed with 5 µL of BSA (1 mg/mL) and 5 µL of HDAC substrate (200 µM) in 96-well black plate. […] After incubation, 50 µL of undiluted 2 × HDAC developer was added to each well. After the mixture was incubated at RT for 15 min, fluorescence intensity was measured using a microplate reader at 360 nm excitation and 460 nm emission wavelengths.

Series [2] concerns the target T2, HDAC6 (Homo sapiens, UniProt Q9UBN7).
T2 sequence (Q9UBN7 1-1215): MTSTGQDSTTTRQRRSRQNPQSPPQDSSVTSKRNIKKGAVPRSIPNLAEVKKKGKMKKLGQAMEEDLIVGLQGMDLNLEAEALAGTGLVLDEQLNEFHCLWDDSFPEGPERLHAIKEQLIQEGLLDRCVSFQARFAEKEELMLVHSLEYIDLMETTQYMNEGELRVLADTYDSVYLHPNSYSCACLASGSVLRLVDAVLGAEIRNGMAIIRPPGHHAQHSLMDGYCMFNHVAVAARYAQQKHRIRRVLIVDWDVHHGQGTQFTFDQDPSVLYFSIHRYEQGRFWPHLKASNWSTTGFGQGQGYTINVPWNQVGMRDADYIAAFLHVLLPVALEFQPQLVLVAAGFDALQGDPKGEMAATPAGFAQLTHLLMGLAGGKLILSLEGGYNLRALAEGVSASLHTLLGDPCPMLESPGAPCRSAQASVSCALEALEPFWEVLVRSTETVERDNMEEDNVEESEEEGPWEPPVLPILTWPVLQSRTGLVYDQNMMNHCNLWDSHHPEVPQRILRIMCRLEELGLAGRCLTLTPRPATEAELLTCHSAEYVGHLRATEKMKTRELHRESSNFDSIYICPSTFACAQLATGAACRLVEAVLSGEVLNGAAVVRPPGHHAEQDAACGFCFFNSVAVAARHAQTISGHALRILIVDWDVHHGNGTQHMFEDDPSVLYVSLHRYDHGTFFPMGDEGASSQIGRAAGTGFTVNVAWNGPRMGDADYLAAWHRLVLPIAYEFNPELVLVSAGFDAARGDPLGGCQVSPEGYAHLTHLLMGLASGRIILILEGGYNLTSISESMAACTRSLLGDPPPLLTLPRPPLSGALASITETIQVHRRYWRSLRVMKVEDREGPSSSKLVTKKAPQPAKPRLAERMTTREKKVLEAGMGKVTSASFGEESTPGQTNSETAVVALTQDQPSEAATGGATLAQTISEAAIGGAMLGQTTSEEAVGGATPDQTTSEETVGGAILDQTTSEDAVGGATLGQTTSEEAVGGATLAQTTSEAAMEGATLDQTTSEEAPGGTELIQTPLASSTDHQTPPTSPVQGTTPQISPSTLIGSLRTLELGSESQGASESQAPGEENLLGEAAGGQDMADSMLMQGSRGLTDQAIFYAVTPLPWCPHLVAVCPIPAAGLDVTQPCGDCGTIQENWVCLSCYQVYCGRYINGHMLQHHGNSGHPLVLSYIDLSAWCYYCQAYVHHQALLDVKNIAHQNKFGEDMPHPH
Kind of series: Enzymatic HDAC fluorogenic assay (BPS Bioscience), HDAC6.
Procedure: as §4, §5

Series [3] has as its system SH-SY5Y cells. Briefly: Assessment of cell morphology (phase contrast microscopy). In kind it is cell-based, human. The procedure: SH-SY5Y cells (1 × 10^4 cells/well) were seeded in 6-well plate, and the cells were allowed to attach for 72 h. Culture medium was then changed to fresh medium containing METH (1 mM) for pretreat 4 h. After being preincubated for 4 h, add to compound 6b (5, 10, and 20 µM) for 24 h.
Figure 3 Effect of methamphetamine (METH) and compound 6b on the cell morphology and viability of SH-SY5Y cells. (A) Effect of methamphetamine on the cell viability of SH-SY5Y. Cells were incubated with the indicated concentrations of methamphetamine (METH) for 24 h and cell viability was measured using the colorimetric MTS assay. Data are presented as mean ± SD (n = 4). (B) Bright-field images of SH-SY5Y cells. […]

Series [4] has as its system Ac-α-tubulin. Kind of series: Western blot of Ac-α-tubulin / α-tubulin in SH-SY5Y cells. In kind it is cell-based, human. The protocol: (§1) We further explored the precise cellular mechanism of compound 6b. Histone H3 and α-tubulin are well-known substrates of HDAC1 and HDAC6 [23, 24]. Therefore, inhibition of HDAC1 and HDAC6 enzymes promotes the accumulation of acetylated Histone H3 and α-tubulin, respectively. Therefore, SH-SY5Y cells were incubated with compound 6b at various concentrations (0, 1, 5, 10, and 20 µM) for 24 h and the expression levels of α-tubulin, Ac-α-tubulin, Histone H3, and Ac-Histone H3 were analysed by Western blot. […] The administration of 6b at relatively low concentration of 1 µM caused the acetylation of α-tubulin via inhibition of HDAC6.
We next explored the underlying molecular and biochemical mechanisms behind the morphological changes. α-Tubulin is the basic protein that constitutes the cytoskeleton and the dynamic acetylation and deacetylation of α-tubulin play an important role in the morphology of cells. […]. […] We next investigated if compound 6b reversed the loss of the acetylation caused by methamphetamine. […].
(§2) The cells were washed and lysed in ice-cold lysis buffer (23 mM Tris-HCl pH 7.6, 130 mM NaCl, 1% NP-40, 1% sodium deoxycholate, 0.1% SDS) and 30 µg of lysate per lane was separated by SDS-PAGE, followed by transferring to a PVDF membrane (Bio rad, Hercules, USA). The membrane was blocked with 5% skim milk in TBST, and then incubated with primary antibody. After being treated with goat-anti rabbit secondary antibody (Santa Cruz, CA, USA) coupled horseradish peroxidase, proteins were visualized by ECL chemiluminescence according to the instructions of the manufacturer’s instruction (GE Healthcare, Chicago, IL, USA).
(§3) Figure 2 Effect of compound 6b on the cell viability of SH-SY5Y and the acetylation status of α-tubulin and Histone H3. (A) SH-SY5Y cells were treated with the indicated concentrations of compound 6b for 24 h and the cell viability was measured using the colorimetric MTS assay. Data are presented as mean ± SD (n = 4). (B) SH-SY5Y cells were incubated with the indicated concentrations of compound 6b or Tubastatin A (Tub) for 24 h and the expression levels of α-tubulin, Ac-α-tubulin, Histone H3, and Ac-Histone H3 were analysed by Western blot. Tubastatin A was employed as a positive control and β-actin was used as a loading control. The p value was obtained by Student t-test. * p < 0.01 as compared to vehicle.
. (A) SH-SY5Y cells were incubated with the indicated concentrations of methamphetamine (METH) for 24 h and the expression levels of Ac-α-tubulin and α-tubulin were analysed by Western blot. β-actin was used as a loading control. […]

Series [5] deals with Ac-Histone H3. Kind of series: Western blot of Ac-Histone H3 / Histone H3 in SH-SY5Y cells. Particulars: 24 h. In kind it is cell-based, human. The protocol:
as §1, §2, §3

The target in series [6] is T2, HDAC6.
Procedure: as §4, §5
Details of series [7]: method as in PMID 30597327. Particulars: hampered in vivo application; cited from earlier work.
In series [8] the test system is SH-SY5Y cells. Briefly: Cell viability, colorimetric MTS assay. In kind it is cell-based, human. Particulars: 24 h, up to 1 mM. The procedure:
SH-SY5Y (1 × 10^3 cells/well) were seeded in 96-well plate, the medium volume was brought to 100 µL, and the cells were allowed to attach for 14 h. Various concentrations of compound 6b (1, 5, 10, 30, 50, 70, and 100 µM) and METH (0.1 and 1 mM) were then added to the wells. Cells were then incubated at 37 °C for 24 h. Cell viability was determined using the Promega Cell Titer 96 Aqueous One Solution cell proliferation assay. Absorbance at 490 nm was read on Tecan Infinite F200 Pro plate reader, and values were expressed as percent of absorbance from cells incubated in DMSO alone.
Figure 2 Effect of compound 6b on the cell viability of SH-SY5Y and the acetylation status of α-tubulin and Histone H3. (A) SH-SY5Y cells were treated with the indicated concentrations of compound 6b for 24 h and the cell viability was measured using the colorimetric MTS assay. Data are presented as mean ± SD (n = 4). (B) SH-SY5Y cells were incubated with the indicated concentrations of compound 6b or Tubastatin A (Tub) for 24 h and the expression levels of α-tubulin, Ac-α-tubulin, Histone H3, and Ac-Histone H3 were analysed by Western blot. […]
Figure 3 Effect of methamphetamine (METH) and compound 6b on the cell morphology and viability of SH-SY5Y cells. […] Cells were incubated with the indicated concentrations of methamphetamine (METH) for 24 h and cell viability was measured using the colorimetric MTS assay. […]
In general terms: Formazan colour is commonly taken as a measure of viable cells.

[9] abbreviates: SH-SY5Y, 0, 0.5, 1, 2, and 3 mM, 24 h.

The text below walks through data of publication PMC6940941, “Development of Thiazolidinedione-Based HDAC6 Inhibitors to Overcome Methamphetamine Addiction” (International Journal of Molecular Sciences, 2019).

Some results are limits rather than exact numbers.

T1 sequence (Q13547 whole entry): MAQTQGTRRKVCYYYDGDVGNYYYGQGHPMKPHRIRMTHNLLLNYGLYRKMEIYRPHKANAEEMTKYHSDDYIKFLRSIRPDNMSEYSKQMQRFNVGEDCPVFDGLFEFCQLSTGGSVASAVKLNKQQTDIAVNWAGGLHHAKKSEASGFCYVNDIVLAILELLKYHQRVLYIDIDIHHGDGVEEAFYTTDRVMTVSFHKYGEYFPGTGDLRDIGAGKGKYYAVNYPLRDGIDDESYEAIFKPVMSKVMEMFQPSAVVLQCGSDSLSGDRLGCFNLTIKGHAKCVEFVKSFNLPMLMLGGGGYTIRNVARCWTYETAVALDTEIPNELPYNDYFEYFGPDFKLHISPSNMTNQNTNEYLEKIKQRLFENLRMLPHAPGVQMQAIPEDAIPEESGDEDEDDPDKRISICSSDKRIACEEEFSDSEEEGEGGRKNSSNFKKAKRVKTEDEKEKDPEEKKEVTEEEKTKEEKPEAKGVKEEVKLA

A word on the IC50: it is the concentration that gives 50% inhibition. Turning to `O=C(NO)c1cccc(CN2C(=O)CSC2=O)c1` [Compound 6a, 3-((2,4-Dioxothiazolidin-3-yl)methyl)-N-hydroxybenzamide], the IC50 was greater than 50000 nM in series [1] and 1960 nM in series [2].
For the compound `O=C(NO)c1ccc(CN2C(=O)CSC2=O)cc1` [Compound 6b, 4-((2,4-Dioxothiazolidin-3-yl)methyl)-N-hydroxybenzamide], the “effect on METH-induced cell morphology change” value in series [3] (SH-SY5Y pretreated with 1 mM METH for 4 h, then 5, 10, and 20 µM for 24 h, dose-dependent) is recorded as “reversed effect on the cell morphology change from a rounded shape back to a spindle shape”. For the same compound, the IC50 in series [1] was 388 nM; in series [2], 21 nM. Besides, the “acetylation of α-tubulin after METH-promoted loss of acetylation” value in series [4] (SH-SY5Y pretreated with METH 3 mM for 4 h, then 6b (1 µM) for 24 h) is reported as “significant increase”. For the same compound, the “acetylation of α-tubulin” value in series [4] (SH-SY5Y, 0, 1, 5, 10, and 20 µM, 24 h) is “dose-dependently induced”. Also, the “concentration that caused the acetylation of α-tubulin” value in series [4] (SH-SY5Y, 24 h) came out at 1 µM. Also, in series [5] (SH-SY5Y, 0, 1, 5, 10, and 20 µM), the “acetylation of Histone H3” value is “dose-dependently induced”. Also, the “protein level of Histone H3” value in series [5] (SH-SY5Y, 0-20 µM) is reported as “increases in proportion to the concentration”. Besides, in series [5] (SH-SY5Y), the “concentration able to promote the acetylation of Histone H3” value came out at 10 µM. In addition, the “Selectivity Index” value in series [6] stood at 18.5.
With `CCCC1SC(=O)N(Cc2ccc(C(=O)NO)cc2)C1=O` (centres unmarked) [Compound 8a, 4-((2,4-Dioxo-5-propylthiazolidin-3-yl)methyl)-N-hydroxybenzamide], the IC50 in series [1] is greater than 100000 nM; in series [2] it was 79300 nM.
Turning to `C=CCC1SC(=O)N(Cc2ccc(C(=O)NO)cc2)C1=O` (centres unmarked) [Compound 8b, 4-((5-Allyl-2,4-dioxothiazolidin-3-yl)methyl)-N-hydroxybenzamide], the IC50 in series [1] was greater than 100000 nM; in series [2], 1300 nM.
In the case of `O=C(NO)c1ccc(CN2C(=O)SC(Cc3ccccc3)C2=O)cc1` (centres unmarked) [Compound 8c, 4-((5-Benzyl-2,4-dioxothiazolidin-3-yl)methyl)-N-hydroxybenzamide], the IC50 was greater than 100000 nM in series [1] and 628 nM in series [2].
Take `O=C(NO)c1ccc2c(c1)C(=O)c1ccccc1C2=O` [anthraquinone-based HDAC6 inhibitor]: the solubility entry in series [7] is listed as “poor solubility”.
With `CN[C@@H](C)Cc1ccccc1` [methamphetamine, Methamphetamine], in series [3] (SH-SY5Y, 1 mM), the cell morphology result is listed as “rounded shape with a shrunken morphology”. In series [4] (setting [9]), the “acetylation of α-tubulin” value is listed as “dose-dependently decreased” and the “expression level of α-tubulin” value is “remained unchanged”. The “effect on cell viability” value in series [8] was “no toxicity”.
